{"source": "patent US20130323217A1", "about": "“COMPOSITIONS AND METHODS FOR THE CONTROLLED REPOPULATION OF GRAM-NEGATIVE BACTERIA IN THE COLON” (Da Volterra, priority 2010, published 2013)", "type_in_all_cases": "in vivo, piglets", "key": {"[1]": {"assay": "Microbiological assay of faecal concentrations of colistin", "details": "15 mg/kg/d colistin sulfate", "description": "Fecal concentrations of colistin were measured by a microbiological assay using agar medium 10 (Difco, Becton-Dickinson, Le Pont-de-Claix) and Bordetella bronchiseptica ATCC4617 as indicator strain. The limit of detection was 1.5 μg of colistin base per g of feces.\n(§1) Fresh faecal samples were collected from each piglet, diluted ten-fold (w/v) in peptone broth containing 30% glycerol, and faecal suspension aliquots were stored at −80° C. until microbiological analysis."}, "[2]": {"tested_on": "ESBL-producing Enterobacteriaceae", "assay": "Piglet model: faecal counts of cefotaxime-resistant (ESBL-producing) Enterobacteriaceae after colistin decontamination and E. coli Nissle 1917 repopulation", "description": "(§2) The model was used according to the synopsis depicted in FIG. 1.\nIn summary, piglets were treated sequentially with: • cefdinir (4 mg/kg/d) during 2 days, in order to enhance the carriage of ESBL-producing bacteria, • colistin sulfate (destroy phase):\n(§3) Colistin sulfate (Colivet), a non absorbable antibiotic, used in human decontamination, was given once per day orally in this experiment. Two regimens were tested: 7.5 mg/kg/d and 15 mg/kg/d, equivalent to human doses 500 mg/d and 1000 mg/d, respectively. The duration of the treatment was 3 days. The objective of such very high doses, given over a short period of time, was to obtain a rapid eradication of ESBL-producing Enterobacteriaceae without the emergence of strains resistant to colistin. • E. coli Nissle strain 1917 (EcN1917, Mutaflor). The dose was calculated to administrate the highest dose recommended in humans: 2 enteric-coated capsules of 2.5-25×10^9 viable bacteria, given orally, once daily during 6 days.\nas §1\n(§4) Before analysis, frozen aliquots were thawed by standing approximately 1 hr at room temperature and faecal suspensions were serially diluted in saline before plating on appropriate agar plates.\nTotal Enterobacteriaceae were counted using Drigalski agar (BioRad Laboratories, Marnes-La-Coquette, France) plates.\nCefotaxime- and colistin-resistant Enterobacteriaceae were counted using Drigalski agar supplemented with 1.5 mg/L cefotaxime and 10 mg/L colistin base respectively.\nBacterial counts which were below the detection threshold (2 log CFU/g of faeces) were considered to be equal to the 2 log CFU/g for statistical analysis."}, "[3]": {"tested_on": "colistin-resistant Enterobacteriaceae", "assay": "Piglet model: faecal counts of colistin-resistant Enterobacteriaceae", "details": "during follow-up (14 days)", "description": "as §2, §3, §1, §4\nCefotaxime- and colistin-resistant Enterobacteriaceae were counted using Drigalski agar supplemented with 1.5 mg/L cefotaxime and 10 mg/L colistin base respectively. […]"}}, "data": [{"substance": "colistin sulfate", "values": [{"measurement": "faecal concentrations relative to the MIC", "setting": "[1]", "value": "at least 10 fold"}, {"measurement": "efficacy to eradicate ESBL-producing enterobacteria (destroy phase)", "setting": "[2]; 15 mg/kg/d compared with 7.5 mg/kg/d, orally once per day, 3 days", "value": "best efficacy"}, {"measurement": "decolonization of ESBL-producing enterobacteria", "setting": "[2]; colistin for three days followed by six days of E. coli strain Nissle 1917", "value": "rapid and efficacious decolonization"}, {"measurement": "efficacy in the restore phase", "setting": "[2]; group which had received the high dose of colistin", "value": "best efficacy"}, {"measurement": "selection of strains resistant to colistin", "setting": "[3]", "value": "no selection of strains resistant to colistin was observed"}]}]}
